Measured values: patent US8466197B2, “Thiocarbonates as anti-inflammatory and antioxidant compounds useful for treating metabolic disorders” (Genmedica Therapeutics SL, priority 2010, dated 2013)

Experiments:
[1] = In vitro cleavage studies: incubation with human liver S9 fraction, release of the NSAID; assay type: in vitro ADME; conditions: after 1 h of incubation
Method: Table 1 and 2 summarize in vitro data showing that thiocarbonate compounds are hydrolyzed in the presence of human liver S9 fraction and release the NSAID component, Diflunisal (Table 1) or salicylate (Table 2).
The compounds are incubated with human liver S9 fraction to study its metabolic stability and to profile and identify the forming metabolites. The basic incubation mixture of 500 μl in volume consisted of the following components: 1.5 mg of protein per ml, substrate in DMSO, 1 mM NADPH, 1 mM UDPGA, 1 mM PAPS and 1 mM GSH. The substrate concentration used was 2 μM. The final amount of DMSO in the incubation was 1% (v/v). Each reaction mixture was preincubated for 2 minutes at +37° C. The reaction was started by addition of cofactors. After an incubation of 60 min, a 100 μl sample was collected and the reaction was terminated by adding an equal volume of ice-cold acetonitrile. Samples were subsequently cooled in an ice bath for 15 minutes and analyzed. […] The samples are analyzed by HPLC/TOF-MS to monitor both the disappearance of the parent compound and formation of metabolites. […] In addition to ion source conditions optimised to produce molecular ions with high abundance, the samples from last time point (60 min) are analysed also using another parameters (higher aperture voltage) to generate high-resolution in-source fragment ion data. […]

[2] = Pharmacokinetic study: diflunisal levels in plasma after oral administration in mice; assay type: in vivo; conditions: 0.05 mmol/kg
Method: Diflunisal is detected in plasma of mice orally dosed with the compound described in Example 5 or the compound described in Example 8 (0.05 mmol/kg) (table 3).
Male cd-1 mice weighing 25-30 g are purchased from Charles River Laboratories Spain. The animals are housed in animal quarters at 22° C. with a 12-h light/12-h dark cycle and fed ad libitum. O/N fasted animals are dosed at […] with 0.05 mmol/kg of the indicated compound. […] Plasma was separated after centrifugation of blood and kept at −20° C. until metabolites determination.

db/db mice = test: Reduction of fasting glycemia in db/db mice; assay type: in vivo; conditions: db/db mice treated for two weeks with a daily dose, versus vehicle; t-test p less than 0.01 (FIG. 1)
Method: 5-weeks old male mice C57BL/Ks bearing the db/db mutation (The Jackson Laboratories) and 7-weeks old male mice C57BL/6 bearing the ob/ob mutation are purchased from Charles River Laboratories Spain (Sant Cugat del Vallès, Spain) are treated with compounds as disclosed herein for a month, administered by single oral injection. Glycemia levels are determined in blood from the Tail Vein, using a rapid glucose analyzer (Accu-Chek Aviva; Roche) 3 times per week, as well as body weight measure. The food and water intake is measured twice a week.
db/db mice were treated for two weeks with a daily dose of the compound of Example 8, (R)-2-acetamido-3-((2′,4′-difluoro-3-(propoxycarbonyl)biphenyl-4-yloxy)carbonylthio) propanoic acid, or with vehicle.

SMILES	Release of the NSAID (diflunisal or salicylate) on incubation in the presence of human liver S9 fraction [1]	Diflunisal detected in plasma of orally dosed mice [2]	Fasting glycemia (db/db mice)
CC(=O)N[C@@H](CSC(=O)Oc1ccccc1C(=O)OCc1ccccc1)C(=O)O [Example 4, (R)-2-Acetamido-3-((2-(benzyloxycarbonyl)phenoxy)carbonylthio) propanoic acid]	no diflunisal or salicylate has been detected	–	–
CCCOC(=O)c1cc(-c2ccc(F)cc2F)ccc1OC(=O)SC[C@H](NC(C)=O)C(=O)O [Example 8, (R)-2-Acetamido-3-((2′,4′-difluoro-3-(propoxycarbonyl)biphenyl-4-yloxy)carbonylthio)propanoic acid]	–	detected	significantly reduced
COC(=O)c1cc(-c2ccc(F)cc2F)ccc1OC(=O)SCCC(NC(C)=O)C(=O)O (racemic) [Example 5, (+/−)-2-Acetamido-4-((2′,4′-difluoro-3-(methoxycarbonyl)biphenyl-4-yloxy)carbonylthio)butanoic acid]	–	detected	–
COC(=O)c1ccccc1OC(=O)SC[C@H](NC(C)=O)C(=O)O [Example 2, (R)-2-Acetamido-3-((2-(methoxycarbonyl)phenoxy)carbonylthio)propanoic acid]	no diflunisal or salicylate has been detected	–	–
